Experimental data reported in EP0608858A1, “5-Membered heterocycles as aggregation inhibitors” (Dr. Karl Thomae GmbH, priority 1993, dated 1994).
Counter-ions that a name gives are not always drawn.

Assays:
Humanthrombozyten [1] = assay: Competitive binding of ³H-BIBU 52 / test substance to human platelets; settings: human platelets in plasma, ³H-BIBU 52 5 nM, 20 min at room temperature; read-out: Kompetitive Bindung ³H-BIBU 52 Textsubstanz an Humanthrombozyten IC₅₀
Excerpt: 1. Kompetitive Bindung ³H-BIBU 52/Testsubstanz an Humanthrombozyten:
Eine Suspension von Humanthrombozyten in Plasma wird mit ³H-BIBU 52 [= (3S,5S)-5-[(4'-Amidino-4-biphenylyl)oxymethyl]-3-[(carboxyl)methyl]-2-pyrrolidinon[3-³H-4-biphenylyl]], das den literaturbekannten Liganden ¹²⁵I-Fibrinogen ersetzt, (siehe deutsche Patentanmeldung P 42 14 245.8 der gleichen Anmeldezin vom 30. 04. 1992, internes Zeichen: Case 5/1093-FL) und verschiedenen Konzentrationen der zu testenden Substanz inkubiert. Der freie und gebundene Ligand wird durch Zentrifugation getrennt und durch Szintillationszählung quantitativ bestimmt. Aus den Meßwerten wird die Hemmung der ³H-BIBU 52-Bindung durch die Testsubstanz bestimmt.
Hierzu wird aus einer Antikubitalvene Spenderblut entnommen und mit Trinatriumzitrat antikoaguliert (Endkonzentration 13 mM) . Das Blut wird 10 Minuten bei 170 x g zentrifugiert und das überstehende plättchenreiche Plasma (PRP) abgenommen. Das Restblut wird zur Gewinnung von Plasma nocheinmal scharf abzentrifugiert. Das PRP wird mit autologem Plasma 1:10 verdünnt. 750 µl werden mit 50 µl physiologischer Kochsalzlösung, 100 µl Testsubstanzlösung, 50 µl ¹⁴C-Sucrose (3.700 Bq) und 50 µl ³H-BIBU 52 (Endkonzentration: 5 nM.) bei Raumtemperatur 20 Minuten inkubiert. Zur Messung der unspezifischen Bindung wird anstelle der Testsubstanz 5 µl BIBU 52 (Endkonzentration: 30 µM) eingesetzt. Die Proben werden 20 Sekunden bei 10000 x g zentrifugiert und der Überstand abgezogen. 100 µl hiervon werden zur Bestimmung des freien Liganden gemessen. Das Pellet wird in 500 µl 0,2N NaOH gelöst, 450 µl werden mit 2 ml Szintillator und 25 µl 5N HCl versetzt und gemessen. Das im Pellet noch verbliebene Restplasma wird aus dem ¹⁴C-Gehalt bestimmt, der gebundene Ligand aus der ³H-Messung. Nach Abzug der unspezifischen Bindung wird die Pelletaktivität gegen die Konzentration der Testssubstanzaufgetragen und die Konzentration für eine 50%ige Hemmung der Bindung ermittelt.

Thrombozytenaggregation = assay: Collagen-induced platelet aggregation (Born and Cross) in platelet-rich plasma; assay type: cell-based, gesunder Versuchspersonen; settings: human platelet-rich plasma, 10 min preincubation with substance at 37°C, read-out: Hemmung der Plättchenaggregation EC₅₀
Excerpt: 2. Antithrombotische Wirkung
Die Thrombozytenaggregation wird nach der Methode von Born und Cross (J. Physiol. 170, 397 (1964)) in plättchenreichem Plasma gesunder Versuchspersonen gemessen. Zur Gerinnungshemmung wird das Blut mit Natriumcitrat 3,14 % im Volumenverhältnis 1:10 versetzt.
Collagen-induzierte Aggregation
Der Verlauf der Abnahme der optischen Dichte der Plättchensuspension wird nach Zugabe der aggregationsauslösenden Substanz photometrisch gemessen und registriert. Aus dem Neigungswinkel der Dichtekurve wird auf die Aggregationsgeschwindigkeit geschlossen. Der Punkt der Kurve, bei dem die größte Lichtdurchlässigkeit vorliegt, dient zur Berechnung der "optical density".
Die Collagen-Konzentration wird möglichst gering gewählt, aber doch so, daß sich eine irreversibel verlaufende Reaktionskurve ergibt. Verwendet wird das handelsübliche Collagen der Firma Hormonchemie, München. Vor der Collagen-Zugabe wird das Plasma jeweils 10 Minuten mit der Substanz bei 37°C inkubiert.
Aus den Konzentrations-Wirkungskurven wird die EC₅₀ berechnet, die die Konzentration beschreibt, bei der die Änderung der "optical density" halbmaximal gehemmt ist.

Humanthrombozyten [2] = assay: Ex vivo inhibition of collagen-induced aggregation of human platelets by rat plasma obtained after oral dosing; assay type: in vivo; settings: rat plasma obtained after oral 10 mg/kg, after 3 hours
Description: Außerdem erzielt man beispielsweise mit dem nach peroraler Gabe vom 10 mg/kg der Verbindung des Beispiels 2(19) gewonnenen Rattenplasma ex vivo nach 3 Stunden eine 80%ige Hemmung der durch Kollagen induzierten Aggregration von Humanthrombozyten.

Mäusen = assay: Tolerability after intravenous administration to mice; assay type: in vivo; settings: 30 mg/kg, 3 mice each

| SMILES | IC50 (Humanthrombozyten [1]) [nM] | EC50 (Thrombozytenaggregation) [nM] | Hemmung der durch Kollagen induzierten Aggregration von Humanthrombozyten (Humanthrombozyten [2]) [%] | Tiere gestorben (Mäusen) |
| --- | --- | --- | --- | --- |
| COC(=O)[C@H]1CC[C@H](c2nnc(-c3ccc(C4CCNCC4)cc3)s2)CC1 [2(3), 2-[trans-4-(Methoxycarbonyl)-cyclohexyl)-5-[4-(4-piperidyl)-phenyl]-1,3,4-thiadiazol-hydrochlorid] | 550 | 380 | – | – |
| CCOC(=O)[C@H]1CC[C@H](c2nnc(-c3ccc(C4CCNCC4)cc3)s2)CC1.Cl [2(19), 2-[trans-4-(Ethoxycarbonyl)-cyclohexyl]-5-[4-(4-piperidyl)-phenyl]-1,3,4-thiadiazol-hydrochlorid] | – | – | 80 | – |
| O=C(O)CCCCc1nnc(-c2ccc(C3CCNCC3)cc2)o1 [3(1), 2-(4-Carboxybutyl)-5-[4-(4-piperidyl)-phenyl]-1,3,4-oxadiazol] | 6800 | 4400 | – | – |
| CCCCS(=O)(=O)NC(Cc1cn(-c2ccc(-c3ccc(C(=N)N)cc3)nn2)cn1)C(=O)O (centres unmarked) [3(3), 1-[6-(4-Amidino-phenyl)-3-pyridazinyl]-4-[2-(n-butan-sulfonylamino)-2-carboxy-ethyl]-imidazol-hydrochlorid] | 1.6 | 40 | – | – |
| Cl.O=C(O)[C@H]1CC[C@H](c2nnc(-c3ccc(C4CCNCC4)cc3)s2)CC1 [5(3), 2-(trans-4-Carboxy-cyclohexyl)-5-[4-(4-piperidyl)-phenyl]-1,3,4-thiadiazol-hydrochlorid] | 11 | 100 | – | keine Tiere gestorben |
| COC(=O)CCNC(=O)c1nnc(-c2ccc(C3CCNCC3)cc2)s1 [Beispiel 2, 2-[[2-(Methoxycarbonyl)-ethyl]-aminocarbonyl]-5-[4-(4-piperidyl)-phenyl]-1,3,4-thiadiazol-hydrochlorid] | 24000 | 3000 | – | – |
| O=C(O)CCNC(=O)c1nnc(-c2ccc(C3CCNCC3)cc2)s1 [Beispiel 3, 2-[(2-Carboxyethyl)-aminocarbonyl]-5-[4-(4-piperidyl)-phenyl]-1,3,4-thiadiazol-hydrochlorid] | 400 | 880 | – | – |
| Cl.O=C(O)CCCCc1nnc(-c2ccc(C3CCNCC3)cc2)s1 [Beispiel 5, 2-(4-Carboxy-butyl)-5-[4-(4-piperidyl)-phenyl]-1,3,4-thiadiazol-hydrochlorid] | 510 | 320 | – | keine Tiere gestorben |
